One block for each molecule: values may come before it.
What was measured:
[1] = test system: Her2 in SKBr3 cells; experiment: Her2 assay (microtiter immunoassay of Her2 degradation); format: cell-based, human; details: for IC50: Her2 degradation, SKBr3 cells, 24 h, average of 3 measurements; for Her2 degradation in SKBr3 cells: result in words
Description: Her2 Assay. SKBr3 cells were plated in black, clear-bottom microtiter plates (Corning#3603) at 3,000 cells/well in growth medium (100 μl) and allowed to attach for 24 h at 37° C. and 5% CO2. Growth medium (100 μl) with drug or vehicle (DMSO) was carefully added to the wells, and the plates were placed at 37° C. and 5% CO2. Following 24 h incubation with drugs, wells were washed with ice-cold Tris buffer saline (TBS) containing 0.1% Tween 20 (TBST) (200 μl). A house vacuum source attached to an eight-channel aspirator was used to remove the liquid from the plates. Further, methanol (100 μl at −20° C.) was added to each well, and the plate was placed at 4° C. for 10 min. Methanol was removed by washing with TBST (2×200 μl). After further incubation at RT for 2 h with SUPERBLOCK® R (Pierce 37535) (200 μl), anti-Her-2 (c-erbB-2) antibody (Zymed Laboratories#28-004) (100 μl, 1:200 in SUPERBLOCK® R) was placed in each well. The plate was incubated overnight at 4° C. For control wells, 1:200 dilution of a normal rabbit IgG (Santa Cruz#SC-2027) in SUPERBLOCK® R was used. Each well was washed with TBST (2×200 μl) and incubated at RT for 2 h with an anti-rabbit HRP-linked antibody (Sigma, A-0545) (100 μl, 1:2000 in SuperBlockR). Unreacted antibody was removed by washing with TBST (3×200 μl), and the ECL™ Western blotting reagent (Amersham #RPN2106) (100 μL) was added. The plate was immediately read in an Analyst AD plate reader (Molecular Devices). Each well was scanned for 0.1 s. Readings from wells containing only control IgG and the corresponding HRP-linked secondary antibody were set as background and deducted from all measured values.

[2] = test system: SKBr3 breast cancer cells; experiment: Growth inhibition, sulforhodamine B assay; format: cell-based, human; details: for IC50: growth inhibition, 72 h, average of 3 measurements; for Inhibition of growth in SKBr3 cells: result in words
Description: (§1) Cell Culture. The human breast cancer cell lines SKBr3 and MDA-MB-468 were a gift from Dr. Neal Rosen (MSKCC). Cells were maintained in 1:1 mixture of DME:F12 supplemented with 2 mM glutamine, 50 units/mL penicillin, 50 […] and 10% heat inactivated fetal bovine serum (Gemini Bioproducts#100-10b) and incubated at 37° C., 5% CO2. Growth assays. Growth inhibition studies were performed using the sulforhodamine B assay as previously described.^29 In summary, experimental cultures were plated in microtiter plates (Nunc#167008). One column of wells was left without cells to serve as the blank control. Cells were allowed to attach overnight. The following day, growth medium having either drug or DMSO at twice the desired initial concentration was added to the plate in triplicate and was serially diluted at a 1:1 ratio in the microtiter plate. After 72 h of growth, the cell number in treated versus control wells was estimated after treatment with 50% trichloroacetic acid and staining with 0.4% sulforhodamine B in 1% acetic acid. […] Normal human renal proximal tubular epithelial (RPTEC) cells were purchased pre-seeded in 96-well plates (Clonetics, CC-3190). Upon receipt, cells were placed in a humidified incubator at 37° C., 5% CO2 and allowed to equilibrate for 3 h. Media was removed by suction and replaced with fresh media provided by the manufacturer. Cells were then treated with either drugs or DMSO for 72 h and the IC50 values were determined as described above.

[3] = test system: MDA-MB-468 cells; experiment: Anti-mitotic assay (Tg-3 microtiter immunoassay); format: cell-based, human; details: MDA-MB-468 (Rb-defective) cells, 24 h
Description: Anti-Mitotic Assay. Black, clear-bottom microtiter 96-well plates (Corning Costar#3603) were used to accommodate experimental cultures. MDA-MB-468 cells were seeded in each well at 8,000 cells per well in growth medium (100 μL), and allowed to attach overnight at 37° C. and 5% CO2. Growth medium (100 μL) with drug or vehicle (DMSO) was gently added to the wells, and the plates were incubated at 37° C. and 5% CO2 for 24 h. Wells were washed with ice-cold TBST (2×200 μL). A house vacuum source attached to an eight-channel aspirator was used to remove the liquid from the 96-well plates. Ice-cold methanol (100 μL) was added to each well, and the plate was placed at 4° C. for 5 min. Methanol was removed by suction and plates were washed with ice-cold TBST (2×200 μL). Plates were further incubated with SuperBlock® blocking buffer (Pierce #37535) (200 μL) for 2 h at RT. The Tg-3 antibody (gift of Dr. Davies, Albert Einstein College of Medicine) diluted 1:200 in SuperBlock® was placed in each well (100 μL) except the control column that was treated with control antibody (Mouse IgM, NeoMarkers, NC-1030-P). After 72 h, wells were washed with ice-cold TBST (2×200 μL). […] Un-reacted antibody was removed by washing the plates with ice-cold TBST (3×200 μL) for 5 min on a shaker. The ECL™ Western Blotting Detection Reagents 1 and 2 in 1:1 mix (100 μL) was placed in each well and the plates were read immediately in an Analyst AD plate reader (Molecular Devices). Luminescence readings were imported into SOFTmax PROR 4.3.1. Anti-mitotic activity was defined as a concentration dependent increase in luminescence readings in compound-treated wells as compared to DMSO only treated wells.

[4] = test system: Hsp90 complexes found in normal lung tissue; experiment: Hsp90 competition assay, lung homogenate; format: binding, mouse; details: ratio of EC50 values
Description: (§4) When using cell lysates instead of recombinant protein, the assay measures binding to average. Hsp90 population found in cell specific complexes.
(§5) Hsp90 Competition Assay.Fluorescence polarization measurements were performed on an ANALYST® AD instrument (Molecular Devices, Sunnyvale, Calif.). […] The assay buffer (HFB) contained 20 mM HEPES (K) pH 7.3, 50 mM KCl, 5 mM MgCl2, 20 mM Na2MoO4, 0.01% NP40. Before each use, 0.1 mg/mL bovine gamma globulin (BGG) (Panvera Corporation, Madison, Wis.) and 2 mM DTT (Fisher Biotech, Fair Lawn, N.J.) were freshly added. […] Cell lysates were prepared rupturing cellular membranes by freezing at −70° C. and dissolving the cellular extract in HFB with added protease and phosphotase inhibitors. Organs were harvested from a healthy mouse and homogenized in HFB. Saturation curves were recorded in which GM-BODIPY (5 nM) was treated with increasing amounts of cellular lysates.

[5] = test system: Hsp90 complexes found in normal heart tissue; experiment: Hsp90 competition assay, heart homogenate; format: binding, mouse; details: ratio of EC50 values
Description: as §4, §5

[6] = test system: Hsp90 complexes found in normal brain tissue; experiment: Hsp90 competition assay, brain homogenate; format: binding, mouse; details: ratio of EC50 values
Description: as §4, §5

[7] = test system: Hsp90 from SKBr3 cells; experiment: Hsp90 competition assay, SKBr3 cell lysate; format: binding, human
Description: as §4, §5

[8] = test system: renal proximal tubular epithelial cells (RPTEC); experiment: Cytotoxicity against normal RPTEC cells; format: cell-based, human; details: ratio of growth IC50 values
Description: as §1, with “Cells were then treated with either drugs or DMSO for 72 h and the IC50 values were determined as described above.” left out

[9] = test system: small cell lung cancer cell lines; experiment: Apoptosis and cell death in SCLC cell lines; format: cell-based; details: each of the SCLC cell lines
[10] = Tumor and plasma concentration in MDA-MB-468 xenografted mice; format: in vivo; details: 24 hours after intraperitoneal injection
Description: (§2) Mice xenografted with MDA-MB-468 human breast cancer tumors were treated by intraperitoneal injection with Compound 5 at a dosage levels of 25, 50, 75, 100 and 150 mg/kg. The concentration of Compound 5 in the tumor 24 hours after administration was determined. […] Compound 5 was further tested for its effects on the pharmacodynamic marker Raf-1 kinase.

[11] = test system: Raf-1 kinase; experiment: Pharmacodynamic marker in MDA-MB-468 xenograft tumors; format: in vivo, mice
Description: as §2
Hsp90 stabilizes this kinase and maintains it in ready-to-be-activated conformation. Inhibition of Hsp90 leads to disruption of the complex and further ubiquitinylation and degradation of Raf-1 by the proteasome. Thus, Raf-1 degradation in tumors is a functional read-out of Hsp90 inhibition.

[12] = test system: cancer cells; experiment: Potency against cancer cells; format: cell-based
Description: (§3) Growth over 96 h was assessed.

[13] = test system: H69AR; experiment: Growth over 96 h, resistant SCLC line; format: cell-based; details: SCLC cell line resistant to adriamycin
Description: as §3

[14] = test system: SKI-Chen; experiment: Growth over 96 h, resistant SCLC line; format: cell-based, human; details: line from a patient who failed every conventional therapy
Description: as §3

[15] = test system: SCLC cells highly resistant to conventional chemotherapy; experiment: Growth inhibition and cell death, FIG. 8; format: cell-based; details: FIG. 8, growth over 96 h
Description: as §3

[16] = test system: small cell lung tumors; experiment: Pharmacodynamics and anti-cancer activity in a model of small cell lung cancer; format: in vivo
[17] = Blood brain barrier penetration
[18] = test system: MRC5 normal lung fibroblasts; experiment: Selectivity SKBr3 versus MRC5 normal cells; format: cell-based

- IC50 [1]: 58000 ± 1400 nM
- IC50 ([1]; listed as Comp 2): 1300 ± 400 nM
- IC50 [2]: 48400 ± 2500 nM
- IC50 ([2]; listed as Comp 2): 1800 ± 200 nM
Molecule: 9-(Pent-4-ynyl)-8-(2,4,5-trichloro-phenylsulfanyl)adenine [Example 2]
- Her2 degradation in SKBr3 cells [1]: induced Her2 degradation
- Inhibition of growth in SKBr3 cells [2]: inhibition of growth
- Anti-mitotic [3]: No
- Anti-mitotic ([3]; listed as Comp 2): exhibited anti-mitotic activity and Yes
- Lung/SKBr3 [4]: 2400
- Heart/SKBr3 [5]: 590

Molecule: C#CCCCn1c(Sc2cc3c(cc2Br)OCO3)nc2c(N)ncnc21 [Example 1, 9-(Pent-4-ynyl)-8-(6-bromo-benzo[1,3]dioxol-5-ylsulfanyl)adenine]
- Her2 degradation in SKBr3 cells [1]: induced Her2 degradation
- Inhibition of growth in SKBr3 cells [2]: inhibition of growth
- Anti-mitotic [3]: exhibited anti-mitotic activity and Yes
- Brain/SKBr3 [6]: 2000
- Selectivity for tumor cells as opposed to normal heart, brain or lung tissue [7]: very high selectivity
- RPTEC/SKBr3 [8]: 20.5
- Induction of apoptosis in SCLC cell lines [9]: induced apoptosis

Molecule: COc1cc(Sc2nc3c(N)ncnc3n2CCOC(C)C)c(Cl)cc1Cl [Example 3, 9-(2-Isopropoxy-ethyl)-8-(2,4-dichloro-5-methoxy-benzenesulfanyl)adenine]
- Anti-mitotic [3]: No

Molecule: Nc1ncnc2nc(Sc3cc(Cl)c(Cl)cc3Cl)[nH]c12 [Example 4, 8-(2,4,5-Trichloro-phenylsulfanyl)adenine]
- Anti-mitotic [3]: Yes

- Concentration in plasma [10]: could not be detected
Molecule: CC(C)NCCCn1c(Sc2cc3c(cc2Br)OCO3)nc2c(N)ncnc21 [Example 5, 8-(6-Bromo-benzo[1,3]dioxol-5-ylsulfanyl)-9-(3-isopropylamino-propyl)adenine]
- Anti-mitotic [3]: Yes
- Raf-1 protein levels in tumor ([11]; all dosage levels): substantial decrease in Raf-1 levels
- Expression of PD kinase ([11]; protein unaffected by Hsp90 inhibitors): no change in expression

Molecule: C#CCCCn1c(Cc2cc3c(cc2Br)OCO3)nc2c(N)nc(F)nc21 [Example 6, 2-Fluoro-8-(6-bromo-benzo[1,3]dioxol-5-ylmethyl)-9-(pent-4-ynyl)adenine]
- Anti-mitotic [3]: Yes

Molecule: C#CCCCn1c(Cc2cc3c(cc2Cl)OCO3)nc2c(N)nc(F)nc21 [Example 7, 2-Fluoro-8-(6-chloro-benzo[1,3]dioxol-5-ylmethyl)-9-(pent-4-ynyl)adenine]
- Anti-mitotic [3]: Yes

Molecule: CC(C)NCCCn1c(Cc2cc3c(cc2I)OCO3)nc2c(N)nc(F)nc21 [Example 8, 2-Fluoro-8-(6-iodo-benzo[1,3]dioxol-5-ylmethyl)-9-(3-isopropylamino-propyl) adenine]
- Anti-mitotic [3]: Yes
- Potency against cancer cells [12]: low nanomolar potency

Molecule: CC(C)NCCCn1c(Sc2cc3c(cc2I)OCO3)nc2c(N)ncnc21 [Example 9, 8-(6-Iodo-benzo[1,3]dioxol-5-ylsulfanyl)-9-(3-isopropylamino-propyl)adenine]
- IC50 ([1]; Homo sapiens, SK-BR-3): 100 ± 10 nM
- IC50 ([2]; Homo sapiens, SK-BR-3): 90 ± 2 nM
- Anti-mitotic [3]: Yes
- Lung/SKBr3 [4]: 48
- Heart/SKBr3 [5]: 140
- Potency against cancer cells [12]: low nanomolar potency
- Activity in H69AR [13]: retains its activity
- Activity in SKI-Chen [14]: retains its activity
- Effective concentration lower than PU24FC1 [15]: about 20 times
- Tumor growth inhibition ([16]; comparable to 17AAG): efficiently inhibited the growth of this tumor
- Apoptosis of the tumor (PARP cleavage) ([16]; in vivo): induces significant apoptosis of the tumor
- Duration of downregulation of Hsp90 client proteins in tumor ([16]; in vivo): more than 36 h
- Toxicity to the host ([16]; in vivo): without toxicity to the host
- Raf-1 and Akt in tumor ([16]; one administered dose): efficiently degraded or inactivated
- Blood brain barrier penetration [17]: ability to cross the blood brain barrier

Molecule: C#CCCCn1c(Sc2cc3c(cc2I)OCO3)nc2c(N)ncnc21 [Example 10, 8-(6-Iodo-benzo[1,3]dioxol-5-ylsulfanyl)-9-(pent-4-ynyl)adenine]
- Heart/SKBr3 [5]: 370
- Selectivity between SKBr3 cells and MRC5 normal lung fibroblasts [18]: Selectivity was also observed

Molecule: C#CCCCn1c(Cc2cc3c(cc2I)OCO3)nc2c(N)nc(F)nc21 [Example 11, 2-Fluoro-8-(6-iodo-benzo[1,3]dioxol-5-ylmethyl)-9-(pent-4-ynyl)adenine]
- Anti-mitotic [3]: Yes

Molecule: C#CCCCn1c(Cc2cc(OC)c(OC)cc2I)nc2c(N)nc(F)nc21 [Example 12, 2-Fluoro-8-(2-iodo-4,5-dimethoxy-benzyl)-9-(pent-4-ynyl)adenine]
- Anti-mitotic [3]: No

Molecule: C#CCCCn1c(Cc2cc(OC)c(OC)cc2Br)nc2c(N)nc(F)nc21 [Example 13, 2-Fluoro-8-(2-bromo-4,5-dimethoxy-benzyl)-9-(pent-4-ynyl)adenine]
- Anti-mitotic [3]: No

Molecule: C#CCCCn1c(Cc2cc(OC)c(OC)cc2Cl)nc2c(N)nc(F)nc21 [Example 14, 2-Fluoro-8-(2-chloro-4,5-dimethoxy-benzyl)-9-(pent-4-ynyl)adenine]
- Anti-mitotic [3]: No

Reference: patent US10676476B2, “Small-molecule HSP90 inhibitors” (Sloan-Kettering Institute for Cancer Research, priority 2005, dated 2020)
